Patent US20020016279A1, “Enzymatic oxidation composition and process” (Unilever Home & Personal Care USA, Division of Conopco, Inc., priority 2000, published 2002)
Structures can show the parent of a compound that is named as a salt.

Assay: Stain bleach performance of the peroxidase/enhancer system on tomato stains (wash test, no hydrogen peroxide added)
Method: The potential of the enzymatic bleach system, consisting of a peroxidase enzyme and an enhancer, to bleach stains was assessed by washing cotton swatches soiled with tomato stains. The experiments were performed in 1 l beakers, to which 800 ml of wash solution were added. […]
The swatches were washed during 30 minutes at 30° C. After the wash, the swatches were tumble-dried and the reflectance spectra were measured using a Minolta spectrometer. The color differences between the swatch before and after the wash data were expressed in the CIELAB L*a*b* color space. In this color space, L* indicates lightness and a* and b* are the chromaticity coordinates. Color differences between two swatches are expressed as ΔE, which is calculated from the following equation:
ΔE={square root}{square root over (ΔL^2+Δa^2+Δb^2)}

[1] = cotton swatches soiled with tomato stains, enhancer 250 μM, peroxidase from Arthromyces ramosus 50 μg/l, wash solution 2 g/l, pH 10.5, 30 minutes at 30° C, no enhancer: 6.5

SMILES | ΔE [1] | ΔE (Example 2, enhancer 50 μM, peroxidase 5 mg/l, tomato stains, peroxidase without enhancer 7.7) | ΔE (Example 2, enhancer 100 μM, peroxidase 5 mg/l, tomato stains, peroxidase without enhancer 7.7) | ΔE (Example 2, enhancer 200 μM, peroxidase 5 mg/l, tomato stains, peroxidase without enhancer 7.7) | ΔE (Example 2, enhancer 200 μM, peroxidase None, tomato stains, None/None control 7.5)
O=C(NNc1ccccc1)c1ccccc1 [2′-phenylbenzohydrazide] | 7.4 |  |  |  | 
Nc1ccc(S(=O)(=O)NNC(=O)C(=O)NNc2ccccc2)cc1 [Ethanedioic acid, 2-[(4-aminophenyl)sulfonyl]-hydrazide-2-phenylhydrazide] | 8.1 | 8.3 | 9.0 | 9.6 | 7.4
CCOC(=O)C(=O)NNc1cccc(Cl)c1 [Ethyl [2-(3-chlorophenyl)]hydrazide oxalate] | 7.8 |  |  |  | 

Second part, the molecule after the results:

ΔE [1] | ΔE (Example 2, enhancer 50 μM, peroxidase 5 mg/l, tomato stains, peroxidase without enhancer 7.7) | ΔE (Example 2, enhancer 100 μM, peroxidase 5 mg/l, tomato stains, peroxidase without enhancer 7.7) | ΔE (Example 2, enhancer 200 μM, peroxidase 5 mg/l, tomato stains, peroxidase without enhancer 7.7) | ΔE (Example 2, enhancer 200 μM, peroxidase None, tomato stains, None/None control 7.5) | SMILES
9.8 |  |  |  |  | COC(=O)C(=O)NNc1ccccc1 [Methyl [2-phenyl]hydrazide oxalate]
9.8 |  |  |  |  | CCCOC(=O)C(=O)NNc1ccccc1 [Propyl [2-phenyl]hydrazide oxalate]
